# Assays:
# thrombocytes = test: ADP-induced aggregation of thrombocytes in vitro (Born method, plasma enriched with thrombocytes); format: cell-based, rabbit; conditions: 3-minute incubation, ADP 10^−5 M
# Protocol: The aggregation of thrombocytes was studied by the Born method based on determination of the changes in the optical density of plasma enriched with thrombocytes after its incubation with an aggregation inductor.
# Adenozinediphosphoric acid (ADP) was selected as an aggregation inductor, which in fact is an aggregation generator. Use was made of a sample (registration number 885) of the Sigma Diagnostics Company (USA) in final concentration of 10^−5 M.
# The experiments were carried out on male rabbits of the “Chinchilla” breed having a mass of 2.7±0.3 kg. 18-24 hours prior to the experiment they were deprived of feed while preserving free access to water.
# To obtain plasma enriched with thrombocytes, blood was taken from a cut of a marginal vein of the rabbit ear, the sample was stabilized with 3.8% of sodium citrate solution in a ratio of 9:1 and centrifuged at 200 g (1000 rev/min) for 10 minutes. The top supernatant layer enriched with thrombocytes was transferred by an automatic dropper into a silicone test tube and kept at 37° C. The plasma enriched with thrombocytes contained, on the average, […]. If this content exceeded the specified 3×10^8 blood platelets in 1 liter, this sample was diluted to the necessary concentration with plasma deprived of thrombocytes, which was obtained by centrifuging blood at 650 g during 10 minutes.
# The measurements of the optical density of the samples were made on two-channel aggregometer of the “Chronolog” Company (USA). A flask containing 490 mkl of plasma rich with thrombocytes was placed in a device, into which a magnetic agitator covered with Teflon was lowered. The index of maximum amplitude of aggregation (MA) in percent of a fall of the plasma optical density under effect of the aggregation inductor was recorded. The control index MA of plasma was compared with the MA of plasma incubated for 3 minutes with different concentrations of the compounds: from 10^−3 to 10^−7 in vitro experiments or with plasma obtained 15, 30, 60 and 120 minutes after intravenous administration of different doses of the compounds in vivo experiments.
# The process of aggregation of thrombocytes was recorded with the help of a computer; on the monitor screen the there were depicted curves reflecting changes of the optical density of the plasma enriched which was taken as a standard 100% compared to the optical density of the non-thrombocyte plasma taken for 0% content of thrombocytes.
# Under in vitro conditions a flask was filled with blood plasma enriched with thrombocytes, to which an aggregation inductor ADP was added at a concentration of 10^−5 M, incubated for 3 minutes, and then the compounds according to the invention were introduced directly into the flask. Their action by aggregation of thrombocytes was studied after 3-minute incubation in a wide range of concentrations from 10^−3 to 10^−7 M to minimum concentration of 10^−7M not inducing no effect of suppressing the aggregation.
# [1] = Electrochemical activity: polarographic reduction on mercury dripping electrode; format: physicochemical; conditions: for i: 2.0% sodium chloride background, 9·10^−4 M; for i / −E1/2: 37° C., forward trace, average for the group of compounds; for −E1/2: vs SCE
# Protocol: The study was carried out on a general-purpose polarograph PU-1 with a two-coordinate recorder of the “LKD” type using a three-electrode thermostatically controlled polarographic cell and mercury dripping electrode (MDE) with forced separation of the drop and a dropping period of 0.5 second. A platinum wire was used as an auxiliary electrode and a saturated calomel electrode (SCE) was used as a control electrode.
# 2.0% solutions of sodium chloride having pH 7.0, 7.2, 7.4, 7.6 were used as a background; the pH values of the background solution were corrected by a solution of sodium hydroxide. The polarographic cell was filled with 5.0 ml of the background solution and for 5 minutes was purged with nitrogen for removing the dissolved oxygen. Then 0.5 ml of solution of the studied substance was added to the background solution, and the polarogram was recorded as a polarographic wave. The concentration of the compounds in the polarographic cell was 9·10^−4 M.
# The pH was measured on the pH-meter with an accuracy of +0.05 pH units. The polarographic measurements were carried out at a temperature of 37° C. The recording of polarograms of the investigated materials was effected under conditions of DC current at a scanning rate of the potential 10.0 mV/s with a active scanning stroke from a potential 0 to −0.5 V and sweep retrace from a −0.5 V to 0. The electric-current sensitivity was 5.0 mkA. The scale by the coordinate of the potentials was 50.0 mV/cm. The values of potentials of the half-wave E1/2 of the investigated materials are given with respect to the SCE potential.
# The polarogram parameters such as a limiting current ilim and E1/2 were determined by the graphic method. The number of electrons participating in the reaction was calculated on the basis of the analysis of the polarographic wave using the Geirovsky-Ilkovich equation.
# The calculation of the number of electrons participating in the reduction reaction was effected using the Geirovsky-Ilkovich equation: […]
# [2] = test system: embryonic fibroblasts of mouse NIH-3T3; conditions: cells of mice NSO and NIH-3T3, 1-5 mkM, within 15-20 minutes; cited from earlier work
# [3] = test system: embryonic fibroblasts of mouse NIH-3T3; test: Effect on endocellular pHi of fibroblasts (microspectrofluorimetry with FDA / BCECF-AM); format: cell-based; conditions: 10 mkM in medium with serum
# Protocol: The effect of the compounds according to the invention on the endocellular pH, embryonic fibroblasts of mouse NIH-3T3 supplied by the All-Russian Collection of Cellular Cultures of the Institute of Cytology of the Russian Academy of Sciences St. Petersburg was investigated. The cells were grown in the DMEM (Sigma) medium containing 2.2 g/l of sodium bicarbonate with addition of 80.0 mkg/ml of gentamicin and 10.0% embryonal veal serum at a temperature of 37° C. in an atmosphere containing 5.0% of carbon dioxide. For these experiments use was also made of a medium buffer with 5.0 mM of HEPES and 15.0 mM of sodium bicarbonate without serum or with addition of 5.0% serum. The cells were calculated with the help of a hemocytometer. A share of the dead cells was determined by colouring trypan blue.
# The measurements of the endocellular pHi were carried out with the help of colorants FDA (Sigma) and BCECF-AM (Calbiochem) on a microspectrofluorimeter by a standard technique (Koshevoy Yu. V., Akatov V. S., Grobova M. E. Microspectrofluorimeter for measuring endocellular pH (micro pH)”. Devices and equipment for studies in the field of physical-and-chemical biology and biotechnology. Pushchino, 1990. P. 8-14).
# The cells at a temperature of 37° C. were colored within 5 minutes with 5.0 mkM PDA that before the colouring was prepared from a 10.0 mM solution in acetone by dilution for 30 minutes in a phosphatic buffer to 0.1 mM or 2.0 mkM 1.0 mM solution BCECF-AM in DMSO.
# The two-wave method of determining pHi was used based on the ratio intensities of fluorescence of the cells on two wavelengths (Akatov V. S. et all), “Endocellular pH and substrate dependence of proliferation of fibroblasts of Chinese hamster, Cytology, 1991, 33 (7), p. 86-94). The fluorescence was excited by light at λ=490 nm, the emission was recorded simultaneously with two photomultipliers on wavelengths λ=535 nm and λ=570 nm. The K-ratio of the fluorescence on two wavelengths was determined with a deduction of the background fluorescence of the medium near the investigated cells for 40-60 individual cells, which are then averaged taking into account the measurement error. A thermostatically controlled table was used that allowed measurements to be conducted at a temperature of 37° C. An account was taken for the photodynamic damage of the pigmented cells during long-time continuous illumination by excited light. The readings were taken from a section of the preparation exposed to light for not more than 5 minutes.
# The calibration curves for determining the absolute pHi values by magnitude K were constructed using the Thomas technique (Thomas J. A., Bushbaum R. N., Zimniak A. w Racker E. “Intracellular pH measurements in Ehrlich ascites tumor cells utilizing spectroscopic probe generated in situ”, Biochemistry, 1979, v. 18, p. 2210-2218), for which case the pigmented cells treated for 5-10 minutes with carboxyacidic nigericyn (Calbiochem) at a concentration of 5-10 mkg/ml was placed in a solution with a high content of potassium—130 mM KCl, 1.0 mM MgCl2, 20.0 mM of HEPES) and with pH values from 6.2 to 7.6. The K values were measured in the media with different pH assuming that pHi of the cells equals to the pH of the medium due to the action of nigericyn, which exchanges potassium ions for protons and at a high content of potassium in the medium counterbalances the pH of the medium and cells. Calibration curves were used based on the fluorescence of same medium with addition of 5.0 mkM of fluorescence or BCECF were used to the control the stability of the of the instrument readings.
# The cells were colored by pigment BCECF-AM and pHi was measured 10 minutes after incubation in the medium with an appropriate pH value. […]
SMILES,"MA - fall of optical density of plasma, % to the standard (thrombocytes; 10^−3 M, control 60.8 ± 3.4) [%]","MA - fall of optical density of plasma, % to the standard (thrombocytes; 10^−4 M, control 60.0 ± 2.1) [%]","MA - fall of optical density of plasma, % to the standard (thrombocytes; 10^−5 M, control 52.5 ± 2.1) [%]","MA - drop of optical density, % (thrombocytes; 10^−7 M, control 51.5 ± 2.1) [%]","MA - drop of optical density, % (thrombocytes; 10^−6 M, control 52.8 ± 1.8) [%]",number of electrons participating in the reduction reaction ([1]; calculated with Geirovsky-Ilkovich equation),i ([1]; pH 7.0) [mkA],−E1/2 ([1]; pH 7.0) [V],i ([1]; pH 7.2) [mkA],−E1/2 ([1]; pH 7.2) [V],i ([1]; pH 7.4) [mkA],−E1/2 ([1]; pH 7.4) [V],i ([1]; pH 7.6) [mkA],−E1/2 ([1]; pH 7.6) [V],half-wave potential more positive at reverse stroke compared to forward stroke ([1]; polarograms of reverse stroke) [mV],increase of pHi [2] [unit],rise of pHi [3] [pH unit]
"Nc1cnc2c(=O)[nH][nH]c(=O)c2n1.[Na] [Compound 28, sodium salt of 2-amino-pyrazine[2,3-d]-6H-pyridazine-5,8-dione]",49.7 ± 2.2,48.9 ± 2.4,44.2 ± 2.7,50.4 ± 3.0,,,,,,,,,,,,,
"Nc1ncnc2c(=O)n([C@@H]3O[C@H](CO)[C@@H](O)[C@H]3O)[nH]c(=O)c12.[Na] [Compound 31, sodium salt of 4-amino-7-(β-D-ribofuranosile)pyrimido[4,5-d]-6H-pyridazine-5,8-dione]",44.9 ± 2.3,46.7 ± 2.2,39.9 ± 2.1,49.5 ± 1.2,47.5 ± 1.7,,,,,,,,,,,,
"Nc1cccc2c(=O)n([C@@H]3O[C@H](CO)[C@@H](O)[C@H]3O)[nH]c(=O)c12.[Na] [Compound 10, sodium salt of 5-amino-2-(CP (β-D-ribofuranosile)benzo[d]-3H-pyridazine-1,4-dione]",46.2 ± 2.7,48.7 ± 2.4,40.2 ± 4.0,49.8 ± 2.0,48.4 ± 2.4,4.09,0.23 ± 0.03,0.092 ± 0.02,0.30 ± 0.01,0.09 ± 0.01,0.29 ± 0.02,0.092 ± 0.02,0.31 ± 0.02,0.09 ± 0.01,30.0,,
"O=c1[nH]n([C@@H]2O[C@H](CO)[C@@H](O)[C@H]2O)c(=O)c2ccccc12.[Na] [Compound 9, sodium salt of 2-(β-D-ribofuranosile)benzo[d]-3H-pyridazine-1,4-dione]",47.3 ± 2.0,53.1 ± 1.8,41.4 ± 3.4,51.2 ± 1.7,49.4 ± 3.2,,,,,,,,,,,,
"O=c1[nH]n([C@@H]2O[C@H](CO)[C@@H](O)[C@H]2O)c(=O)c2nccc(O)c12.[Na].[Na] [Compound 4, disodium salt of 4-hydroxy-7-(βD-ribofuranosile)pyrido[2,3-d]-6H-pyridazine-5,8-dione]",49.2 ± 2.3,50.2 ± 2.0,46.2 ± 3.1,49.9 ± 3.4,50.6 ± 3.1,,,,,,,,,,,,
"CC[C@@]1([C@@H]2O[C@@H]([C@H]3O[C@@](O)(CO)[C@H](C)C[C@@H]3C)C[C@@H]2C)CC[C@H]([C@]2(C)CC[C@]3(C[C@H](O)[C@@H](C)[C@@H]([C@@H](C)[C@@H](OC)[C@H](C)C(=O)O)O3)O2)O1 [monensine, reference compound]",,,,,,,,,,,,,,,,0.2,0.12

# Source: US8592421B2, “Cyclic bioisosters of purine system derivatives and a pharmaceutical composition based thereon” (priority 2003, dated 2013)
